Assay results: ChEMBL document CHEMBL6109128, “Copper-KRAS-COX2 Axis: A Therapeutic Vulnerability in Pancreatic Cancer” (J Med Chem, 2025)
The source made the active and inactive calls. The calls are words filed in the database; no cut-off is given here.

What was measured:
[1] = test system: CT26; assay: Antitumor activity against mouse CT26 cells implanted in BALB/c mouse assessed as inhibition of tumor growth at 100 mg/kg, po measured after 14 days; type: functional, organism-based; conditions: time 14.0 day
[2] = Toxicity in BALB/c mouse assessed as lung damage at 20 mg/kg, po measured after 29 days by H and E staining based analysis; type: organism-based; conditions: in vivo, 696 h, time 29 day
[3] = test system: PANC-1; assay: Antiproliferative activity against human PANC-1 cells assessed as cell death incubated for 6 hrs in presence of NS3694; type: functional, cell-based
[4] = test system: MIA PaCa-2; assay: Synergistic antiproliferative activity against human MIA PaCa-2 cells assessed as inhibition of colony formation at up to 1 uM incubated for 6 days in presence of rotec-oxib; type: functional, cell-based; conditions: time 6.0 day
[5] = Drug concentration in mouse kidney at 30 mg/kg, po measured at 7 hrs; type: ADME, organism-based; conditions: read-out: Ct
[6] = Toxicity in BALB/c mouse assessed as spleen damage at 20 mg/kg, po measured after 29 days by H and E staining based analysis; type: organism-based; conditions: in vivo, 696 h, time 29 day
[7] = test system: PANC-1; assay: Cytotoxicity against human PANC-1 cells by MTT assay; type: functional, cell-based
[8] = test system: HCT-116; assay: Synergistic antiproliferative activity against human HCT-116 cells assessed as inhibition of colony formation at up to 1 uM incubated for 6 days in presence of CC-115; type: functional, cell-based; conditions: time 6.0 day
[9] = test system: MIA PaCa-2; assay: Synergistic antiproliferative activity against human MIA PaCa-2 cells assessed as inhibition of colony formation at up to 1 uM incubated for 6 days in presence of lumira-coxib; type: functional, cell-based; conditions: time 6.0 day
[10] = test system: HCT-116; assay: Synergistic antiproliferative activity against human HCT-116 cells assessed as inhibition of colony formation at up to 1 uM incubated for 6 days in presence of lumi-racoxib; type: functional, cell-based; conditions: time 6.0 day
[11] = test system: HCT-116; assay: Synergistic antiproliferative activity against human HCT-116 cells assessed as inhibition of colony formation at up to 1 uM incubated for 6 days in presence of celecoxib; type: functional, cell-based; conditions: time 6.0 day
[12] = Cmax in CD-1 mouse at 30 mg/kg, po measured up to 24 hrs by LC-MS/MS analysis; type: ADME, organism-based; conditions: in vivo
[13] = test system: BXPC-3; assay: Induction of apoptosis in human BXPC-3 cells assessed as increase in clonogenic survival up to 0.5 uM incubated for 6 days in presence of Z-VAD-FMK by crystal violet staining based analysis; type: functional, cell-based; conditions: time 6.0 day
[14] = test system: MIA PaCa-2; assay: Induction of apoptosis in human MIA PaCa-2 cells assessed as upregulation of cleaved PARP level at 10 uM measured for 48 hrs by Western blot analysis; type: functional, cell-based
[15] = test system: HCT-116; assay: Induction of apoptosis in human HCT-116 cells assessed as increase in clonogenic survival up to 1 uM incubated for 6 days in presence of Z-VAD-FMK by crystal violet staining based analysis; type: functional, cell-based; conditions: time 6.0 day
[16] = test system: MIA PaCa-2; assay: Synergistic antiproliferative activity against human MIA PaCa-2 cells assessed as inhibition of colony formation at up to 1 uM in presence of FeCl3; type: functional, cell-based
[17] = test system: MIA PaCa-2; assay: Synergistic antiproliferative activity against human MIA PaCa-2 cells assessed as inhibition of colony formation at up to 1 uM incubated for 6 days in presence of MK-663; type: functional, cell-based; conditions: time 6.0 day
[18] = AUC (0 to infinity) in CD-1 mouse at 15 mg/kg, iv measured up to 24 hrs by LC-MS/MS analysis; type: ADME, organism-based; conditions: in vivo
[19] = test system: MIA PaCa-2; assay: Induction of apoptosis in human MIA PaCa-2 cells assessed as increase in clonogenic survival up to 0.5 uM incubated for 6 days in presence of necrostatin-1 by crystal violet staining based analysis; type: functional, cell-based; conditions: time 6.0 day
[20] = test system: MIA PaCa-2; assay: Cytotoxicity against human MIA PaCa-2 cells assessed as cell death up to 1 uM incubated for 6 days in presence of NAC; type: functional, cell-based; conditions: time 6.0 day
[21] = Drug concentration in mouse heart at 30 mg/kg, po measured at 7 hrs; type: ADME, organism-based; conditions: read-out: Ct
[22] = test system: HCT-116; assay: Synergistic antiproliferative activity against human HCT-116 cells assessed as inhibition of colony formation at up to 1 uM incubated for 6 days in presence of JQ-1; type: functional, cell-based; conditions: time 6.0 day
[23] = Oral bioavailability in CD-1 mouse at 30 mg/kg measured up to 24 hrs by LC-MS/MS analysis; type: ADME, organism-based; conditions: in vivo
[24] = test system: MIA PaCa-2; assay: Induction of necroptosis in human MIA PaCa-2 cells assessed as increase in p-RIP3 level at 10 uM incubated for 1 hr by Western blot analysis; type: functional, cell-based
[25] = test system: PANC-1; assay: Synergistic antiproliferative activity against human PANC-1 cells assessed as inhibition of colony formation at up to 1 uM incubated for 6 days in presence of valdecoxib; type: functional, cell-based; conditions: time 6.0 day
[26] = test system: HCT-116; assay: Cytotoxicity against human HCT-116 cells assessed as cell death up to 1 uM incubated for 6 days in presence of NAC; type: functional, cell-based; conditions: time 6.0 day
[27] = Metabolic stability in human liver microsome assessed as half life measured up to 60 mins by LC-MS/MS analysis; type: ADME; conditions: liver microsomes
[28] = test system: BXPC-3; assay: Synergistic antiproliferative activity against human BXPC-3 cells assessed as inhibition of colony formation at up to 1 uM incubated for 6 days in presence of valdecoxib; type: functional, cell-based; conditions: time 6.0 day
[29] = test system: HCT-116; assay: Induction of ferroptosis in human HCT-116 cells assessed as cell death at up to 1 uM in presence of ferrostatin-1; type: functional, cell-based
[30] = test system: HCT-116; assay: Synergistic antiproliferative activity against human HCT-116 cells assessed as inhibition of colony formation at up to 1 uM incubated for 6 days in presence of LY2603618; type: functional, cell-based; conditions: time 6.0 day
[31] = Toxicity in BALB/c mouse assessed as pancrease damage at 20 mg/kg, po measured after 29 days by H and E staining based analysis; type: organism-based; conditions: in vivo, 696 h, time 29 day
[32] = Half life in CD-1 mouse at 15 mg/kg, iv measured up to 24 hrs by LC-MS/MS analysis; type: ADME, organism-based; conditions: in vivo
[33] = test system: SU.86.86; assay: Cytotoxicity against human SU-86-86 cells by MTT assay; type: functional, cell-based
[34] = test system: BXPC-3; assay: Synergistic antiproliferative activity against human BXPC-3 cells assessed as inhibition of colony formation at up to 1 uM incubated for 6 days in presence of celecoxib; type: functional, cell-based; conditions: time 6.0 day
[35] = test system: MIA PaCa-2; assay: Antiproliferative activity against human MIA PaCa-2 cells harboring KRAS; type: functional, cell-based
[36] = test system: HCT-116; assay: Synergistic antiproliferative activity against human HCT-116 cells assessed as inhibition of colony formation at up to 1 uM incubated for 6 days in presence of valdecoxib; type: functional, cell-based; conditions: time 6.0 day
[37] = test system: BXPC-3; assay: Cytotoxicity against human BXPC-3 cells harboring wild type KRAS; type: functional, cell-based
[38] = test system: HCT-116; assay: Induction of ferroptosis in human HCT-116 cells at up to 1 uM in presence of erastin; type: functional, cell-based
[39] = test system: HCT-116; assay: Synergistic antiproliferative activity against human HCT-116 cells assessed as inhibition of colony formation at up to 1 uM incubated for 6 days in presence of AZD6738; type: functional, cell-based; conditions: time 6.0 day
[40] = test system: HCT-116; assay: Synergistic antiproliferative activity against human HCT-116 cells assessed as inhibition of colony formation at up to 1 uM incubated for 6 days in presence of napabucasin; type: functional, cell-based; conditions: time 6.0 day
[41] = test system: BXPC-3; assay: Cytotoxicity against human BXPC-3 cells by MTT assay; type: functional, cell-based
[42] = AUC (0 to infinity) in CD-1 mouse at 30 mg/kg, po measured up to 24 hrs by LC-MS/MS analysis; type: ADME, organism-based; conditions: in vivo

With `N[C@@H]1[C@H]2CN(c3cnc(C(=O)Nc4cc(F)cc5cccnc45)cn3)C[C@@H]12` the TGI [1] was “Active”, the Activity [2] was “Non-toxic” and the Activity [3] was “Active”. For the same compound, the Activity [4] was “Active”, the concentration at 7 h [5] was 6100 ng/g and the Activity [6] was “Non-toxic”. For the same compound, the IC50 [7] was 4400 nM, the Activity [8] was “Active” and the Activity [9] was “Active”. For the same compound, the Activity [10] was “Active”, the Activity [11] was “Active” and the Cmax [12] was 364 ng/mL. The Activity [13] was “Active”, the Activity [14] was “Active” and the Activity [15] was “Active”. The Activity [16] was “Active”, the Activity [17] was “Active” and the AUC(0-inf) [18] was 3450 ng·h/mL. For the same compound, the Activity [19] was “Active”, the Activity [20] was “Active” and the concentration at 7 h [21] was 1840 ng/g. For the same compound, the Activity [22] was “Active”, the bioavailability [23] was 55.3% and the Activity [24] was “Active”. The Activity [25] was “Active”, the Activity [26] was “Active” and the half-life [27] was greater than 1 h. For the same compound, the Activity [28] was “Active”, the Activity [29] was “inactive” and the Activity [30] was “Active”. For the same compound, the Activity [31] was “Non-toxic”, the half-life [32] was 3 h and the IC50 [33] was 1100 nM. The Activity [34] was “Active”, the Activity [35] was “Active” and the Activity [36] was “Active”. For the same compound, the Activity [37] was “inactive”, the Activity [38] was “Active” and the Activity [39] was “Active”. The Activity [40] was “Active”, the IC50 [41] was greater than 10000 nM and the AUC(0-inf) [42] was 3810 ng·h/mL.
For `C[C@@H]1OCC2(CCN(c3cnc(C(=O)Nc4cc(F)cc5cccnc45)cn3)CC2)[C@@H]1N`, the Activity [3] was “Active”, the Activity [4] was “Active” and the IC50 [7] was 2900 nM. The Activity [8] was “Active”, the Activity [9] was “Active” and the Activity [10] was “Active”. For the same compound, the Activity [11] was “Active”, the Cmax [12] was 1020 ng/mL and the Activity [13] was “Active”. The Activity [14] was “Active”, the Activity [15] was “Active” and the Activity [16] was “Active”. The Activity [17] was “Active”, the AUC(0-inf) [18] was 6090 ng·h/mL and the Activity [19] was “Active”. The Activity [20] was “Active”, the Activity [22] was “Active” and the bioavailability [23] was 55.2%. The Activity [24] was “Active”, the Activity [25] was “Active” and the Activity [26] was “Active”. The half-life [27] was greater than 1 h, the Activity [28] was “Active” and the Activity [29] was “inactive”. For the same compound, the Activity [30] was “Active”, the half-life [32] was 2.8 h and the IC50 [33] was 800 nM. The Activity [34] was “Active”, the Activity [35] was “Active” and the Activity [36] was “Active”. For the same compound, the Activity [37] was “inactive”, the Activity [38] was “Active” and the Activity [39] was “Active”. For the same compound, the Activity [40] was “Active”, the IC50 [41] was 8500 nM and the AUC(0-inf) [42] was 6800 ng·h/mL.
